In brackets after ≈: the same amount, converted by molar mass. Several values for one entry are separate records, joined by “and”; a condition that tells them apart may be missing. Equal entries are not always repeated. Where two headings read alike, the source gives them in different places.
Tests used:
Influenza viruses = conditions: cited from earlier work
Influenza A/NWS/33 virus [1] = conditions: i.p. once daily for 8 days
[2] = Persinos et al., 1979; cited from earlier work
[3] = tested on: RNA-directed DNA polymerase; conditions: Sethi, 1977; cited from earlier work
[4] = tested on: Respiratory syncytial virus (RSV); experiment: microbe, parasite or virus in culture; type: cell-based; conditions: human respiratory syncytial virus
Parainfluenza virus 3 = experiment: microbe, parasite or virus in culture; type: cell-based
Influenza A = experiment: microbe, parasite or virus in culture; type: cell-based; conditions: for EC50: Influenza A virus
Influenza B = experiment: microbe, parasite or virus in culture; type: cell-based; conditions: for ED50: FLU-B; for EC50: Influenza B virus
Adenovirus 5 = experiment: In vitro antiviral assay, inhibition of CPE, adenovirus 5; type: cell-based; conditions: Human mastadenovirus C, HEp-2, HEp2 cells, Table 1 experiment 2, read-out: ED50 (the source's name)
Adenovirus 7 = experiment: In vitro antiviral assay, inhibition of CPE, adenovirus 7; type: cell-based; conditions: Human mastadenovirus B, HEp-2, HEp2 cells, Table 1 experiments 2-3, read-out: ED50 (the source's name)
Measles = experiment: In vitro antiviral assay, inhibition of CPE, measles; type: cell-based, Measles virus; conditions: Measles morbillivirus, HEp-2, HEp2 cells, Table 1 experiments 1-2, read-out: ED50 (the source's name)
RSV A2 [5] = experiment: RSV infection of cotton rats, intraperitoneal dosing, lung titer; type: in vivo, Hispid Cotton Rats; conditions: for % kill: versus control; for ED50: 3-day intraperitoneal dosing
Protocol: Control animals received an equal volume of distilled water. […] All animals were killed on day 5. Lungs were removed and washed via transpleural lavage. The fluid collected was assessed for RSV titer in a microtiter assay using HEp2 cells.
(§1) Tissue control wells contained medium, but no virus. […] Virus control wells were observed daily. […] In addition to visual CPE, inhibition of syncytia formation is used to confirm activity against RSV. Lung RSV titer logm was calculated as described by Dubovi et al., 1983; 1984.

RSV A2 [6] = experiment: RSV infection of cotton rats, oral dosing, lung titer; type: in vivo, Hispid Cotton Rats; conditions: for ED50: human respiratory syncytial virus, 72 h, 3-day oral dosing
Protocol: as §1
All animals were killed on day 5 and lung tissues were collected. Lungs were removed and washed via transpleural lavage. The fluid collected was assessed for RSV titer in a microtiter assay using HEp2 cells as described above.

Influenza A/NWS/33 virus [7] = conditions: for influenza inhibition (words): 75 mg/kg/day i.p.
[8] = Table 16; 75 mg/kg/day i.p. bid × 5; female
RSV or influenza virus = conditions: cited from earlier work
PIV-1 = experiment: In vitro antiviral assay, inhibition of CPE, PIV-1
[9] = 75 mg/kg/day i.p. bid × 5, days 2, 4, 6, 8
[10] = 75 mg/kg/day i.p. bid × 5 from 4 hr post-virus, female

Cl.NC12CC3CC(CC(C3)C1)C2 [Amantadine, 1-Adamantanamine HCL]
central nervous system side effects (Influenza viruses): causes some central nervous system side effects | shortening of fever duration and respiratory symptoms (Influenza viruses): about 50% | inhibition of influenza A infection (overall words) (Influenza A/NWS/33 virus [1]): ineffective

COc1ccc2c(=O)oc3c(OC)cc(CCN(C)C)c4c(=O)oc1c2c34 [taspine]
anti-inflammatory activity [2]: exhibits anti-inflammatory activity | RNA-directed DNA polymerase activity [3]: inhibit RNA-directed DNA polymerase activity

NC(=O)c1ncn([C@@H]2O[C@H](CO)[C@@H](O)[C@H]2O)n1 [Ribavirin, 1-β-D-ribofuranosyl-1,2,4-triazole 3-carboxamide]
EC50 ([4]; HEp-2, RSV B-46791, read-out: ED50 (the source's name)): 8 µg/mL (≈ 32.8 µM) | EC50 ([4]; HEp-2, RSV B-47063, read-out: ED50 (the source's name)): 12 µg/mL (≈ 49.1 µM) | EC50 ([4]; HEp-2, RSV, mean of all strains, read-out: ED50, MEAN): 11.9 µg/mL (≈ 48.7 µM) | EC50 (Parainfluenza virus 3; HEp-2, PIV-3, mean, read-out: ED50, MEAN): 15.4 µg/mL (≈ 63.1 µM) | EC50 (Parainfluenza virus 3; HEp-2, Parainfluenza virus (3), HEp2 cells, Table 1 experiments 1-3, read-out: ED50 (the source's name)): 15.6 µg/mL (≈ 63.9 µM) | ED50 (Parainfluenza virus 3; PIV-3): 16.0 µg/mL (≈ 65.5 µM) | ED50 (Parainfluenza virus 3; Parainfluenza virus (3), HEp2 cells, Table 1 experiments 1-3): 15.7 µg/mL and 12 µg/mL | EC50 (Influenza A; HEp-2, FLU-A, A-Leningrad, read-out: ED50 (the source's name)): 6 µg/mL (≈ 24.6 µM) | EC50 (Influenza A; HEp-2, FLU-A, A-Shanghai, read-out: ED50 (the source's name)): 6 µg/mL (≈ 24.6 µM) | EC50 (Influenza A; HEp-2, FLU-A, B-Japan, read-out: ED50 (the source's name)): 1.6 µg/mL (≈ 6.55 µM) | EC50 (Influenza A; HEp-2, FLU-A, B-NWS/33, read-out: ED50 (the source's name)): 1 µg/mL (≈ 4.09 µM) | EC50 (Influenza A; HEp-2, FLU-A, B-Portchalm, read-out: ED50 (the source's name)): 1 µg/mL (≈ 4.09 µM) | EC50 (Influenza A; HEp-2, FLU-A, mean of all strains, read-out: ED50, MEAN): 8.2 µg/mL (≈ 33.6 µM) | EC50 (Influenza A; HEp-2, Influenza A, HEp2 cells, Table 1 experiments 1-3, read-out: ED50 (the source's name)): 15 µg/mL (≈ 61.4 µM) | ED50 (Influenza A; Influenza A, HEp2 cells, Table 1 experiments 1-3): 14.3 µg/mL and 14 µg/mL | ED50 (Influenza B; B-USSR): 7.8 µg/mL (≈ 31.9 µM) | ED50 (Influenza B; B-Yamagata): 8.0 µg/mL (≈ 32.8 µM) | EC50 (Influenza B; HEp-2, FLU-B, B-HongKong, read-out: ED50 (the source's name)): 1 µg/mL (≈ 4.09 µM) | EC50 (Influenza B; HEp-2, FLU-B, B-USSR, read-out: ED50 (the source's name)): 4 µg/mL (≈ 16.4 µM) | EC50 (Influenza B; HEp-2, FLU-B, B-Yamagata, read-out: ED50 (the source's name)): 6 µg/mL (≈ 24.6 µM) | EC50 (Influenza B; HEp-2, FLU-B, mean of all strains, read-out: ED50, MEAN): 5.8 µg/mL (≈ 23.8 µM) | EC50 (Influenza B; HEp-2, Influenza B, HEp2 cells, Table 1 experiments 1-2, read-out: ED50 (the source's name)): 18 µg/mL (≈ 73.7 µM) | EC50 (Adenovirus 5): > 1000 µg/mL | EC50 (Adenovirus 7): > 1000 µg/mL | EC50 (Measles): 31.3 µg/mL (≈ 128 µM) | Lung titer (RSV titer log 10/g lung, Mean ± S.D.) (RSV A2 [5]; 10 mg/kg i.p.): 4.5 ± 0.2 log 10 /g lung | Lung titer (antilog, in parentheses) (RSV A2 [5]; 10 mg/kg i.p.): 31,622 | % kill (RSV A2 [5]; 10 mg/kg i.p.): 0% | Lung titer (RSV titer log 10/g lung, Mean ± S.D.) (RSV A2 [5]; 30 mg/kg i.p.): 4.0 ± 0.3 log 10 /g lung | Lung titer (antilog, in parentheses) (RSV A2 [5]; 30 mg/kg i.p.): 10,000 | % kill (RSV A2 [5]; 30 mg/kg i.p.): 68.4% | reduction in lung titers (RSV A2 [5]; 40 mg/kg i.p.): 50% | Lung titer (RSV titer log 10/g lung, Mean ± S.D.) (RSV A2 [5]; 90 mg/kg i.p.): 2.8 ± 0.3 log 10 /g lung | Lung titer (antilog, in parentheses) (RSV A2 [5]; 90 mg/kg i.p.): 631 | % kill (RSV A2 [5]; 90 mg/kg i.p.): 98% | ED50 (RSV A2 [5]; individual experiments): 30 mg/kg and 50 mg/kg | ED50 (RSV A2 [5]; human respiratory syncytial virus, ip, 72 h, individual experiments, read-out: ED50): 40 mg/kg | ED50 (RSV A2 [5]; human respiratory syncytial virus, ip, 72 h, mean, read-out: ED50, Mean ± S.E.M.): 40 ± 6 mg/kg | Lung titer (RSV titer log 10/g lung, Mean ± S.D.) (RSV A2 [6]; 40 mg/kg oral): 3.30 ± 0.5 log 10 /g lung | Lung titer (antilog, in parentheses) (RSV A2 [6]; 40 mg/kg oral): 1,995 | reduction in lung titers (RSV A2 [6]; 40 mg/kg oral): > 90% | % kill (RSV A2 [6]; 40 mg/kg oral, versus control): 80% | ED50 (RSV A2 [6]; individual experiments, read-out: ED50): > 90 mg/kg | ED50 (RSV A2 [6]; mean, read-out: ED50, Mean ± SEM): > 90 mg/kg | influenza inhibition (words) (Influenza A/NWS/33 virus [7]): inhibitory to the virus infection | Mean SaO2 % (Influenza A/NWS/33 virus [7]; 75 mg/kg/day i.p. bid × 5, daily for 10 days): 81% | Mean Score (lung) (Influenza A/NWS/33 virus [7]; [9]): 0.3 | Mean Virus Titer (log10) (Influenza A/NWS/33 virus [7]; [9]): 3.9 log10 | Infected, Treated Surv/Total (Influenza A/NWS/33 virus [7]; [10]): 10/10 | MST (Influenza A/NWS/33 virus [7]; [10]): > 21.0 days | Infected, Treated Surv/Total (Influenza A/NWS/33 virus [7]; 75 mg/kg/day i.p. bid × 5 from 4 hr post-virus, female, listed as ribavirin): All infected, ribavirin-treated mice survived the infection | influenza inhibition (words) (Influenza A/NWS/33 virus [7]; listed as ribavirin): significant influenza inhibition | Host Wt. Change [8]: 0.6 g | Toxicity controls Surv/Total [8]: 5/5 | CC50 (in vitro; ID50, FLU-A, B-Japan experiment): 78 µg/mL (≈ 319 µM) | CC50 (in vitro; ID50, FLU-A, B-NWS/33 experiment): 100 µg/mL (≈ 409 µM) | CC50 (in vitro; ID50, FLU-A, B-Portchalm experiment): 68 µg/mL (≈ 278 µM) | CC50 (in vitro; ID50, FLU-B, B-HongKong experiment): 80 µg/mL (≈ 328 µM) | CC50 (in vitro; ID50, MEAN, FLU-A experiments, mean): 750 µg/mL (≈ 3070 µM) | CC50 (in vitro; ID50, MEAN, FLU-B experiments, mean): 847 µg/mL (≈ 3470 µM) | CC50 (in vitro; ID50, MEAN, RSV experiments, mean): 946 µg/mL (≈ 3870 µM) | CC50 (in vitro; ID50, PIV-1 experiment): 1000 µg/mL (≈ 4090 µM) | CC50 (in vitro; ID50, PIV-3 experiment): 1000 µg/mL (≈ 4090 µM) | CC50 (in vitro; ID50, RSV A-Tracy experiment): 1000 µg/mL (≈ 4090 µM) | CC50 (in vitro; ID50, RSV B-18537 experiment): 1000 µg/mL (≈ 4090 µM) | CC50 (in vitro; ID50, RSV B-46791 experiment): 1000 µg/mL (≈ 4090 µM) | CC50 (in vitro; ID50, RSV B-47063 experiment): 1000 µg/mL (≈ 4090 µM) | severity of illness and amount of virus shed (RSV or influenza virus; acute respiratory infections): reduce the severity of illness and amount of virus shed | teratogenicity (RSV or influenza virus; in animals): teratogenic in animals | EC50 (PIV-1; HEp-2, read-out: ED50, MEAN, PIV-1, mean): 10.7 µg/mL (≈ 43.8 µM) | EC50 (PIV-1; HEp-2, read-out: ED50, PIV-1): 12 µg/mL (≈ 49.1 µM) | ED50 (PIV-1; PIV-1): 8.0 µg/mL (≈ 32.8 µM)

From US5211944A, “Proanthocyanidin polymers having antiviral activity and methods of obtaining same” (Shaman Pharmaceuticals, Inc., priority 1991, dated 1993)
